Results published in US12637454B2, “Heterocyclic monoacylglycerol lipase (MAGL) inhibitors” (Hoffmann-La Roche Inc., priority 2019, dated 2026).

molecular target: T1, MAGL (Homo sapiens, UniProt Q99685); experiment: 2-AG assay (MAGL inhibitory activity, hydrolysis of 2-arachidonoylglycerol followed by mass spectrometry); assay type: biochemical; settings: 50 pM MAGL, 8 μM 2-arachidonoylglycerol, 15 min preincubation, 30 min incubation at RT
T1 sequence (Q99685 1-303): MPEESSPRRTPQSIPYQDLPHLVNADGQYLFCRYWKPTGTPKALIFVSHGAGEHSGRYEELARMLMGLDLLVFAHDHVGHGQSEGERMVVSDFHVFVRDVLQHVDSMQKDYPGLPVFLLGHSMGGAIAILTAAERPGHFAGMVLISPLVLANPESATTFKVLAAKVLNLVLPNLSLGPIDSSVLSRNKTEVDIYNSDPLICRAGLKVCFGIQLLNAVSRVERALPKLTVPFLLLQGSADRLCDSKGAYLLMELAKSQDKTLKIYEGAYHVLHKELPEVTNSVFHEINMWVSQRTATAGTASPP
Summary of the method: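 MAGL at 50 pM preincubated 15 min at RT with compound (12.5 μM to 0.8 pM, 3-fold) in 50 mM TRIS, 1 mM EDTA, 0.01% Tween. Reaction with 8 μM 2-arachidonoylglycerol ran 30 min at RT, quenched with ACN; arachidonic acid measured by SPE-MS/MS as ratio to d8-arachidonic acid.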

Row | SMILES | IC50 [nM]
1 | O=C(c1cccc2c1CCN2)N1CCN2C[C@@](O)(c3ccc(F)c(Cl)c3)CC[C@@H]2C1 [Example 65, [(7S,9aR)-7-(3-chloro-4-fluorophenyl)-7-hydroxy-3,4,6,8,9,9a-hexahydro-1H-pyrido[1,2-a]pyrazin-2-yl]-(2,3-dihydro-1H-indol-4-yl)methanone] | 68.4
2 | O=C(c1cncc(-c2cc[nH]n2)c1Cl)N1CCN2C[C@@](O)(c3ccc(Cl)cc3)CC[C@@H]2C1 [Example 66, [(7S,9aR)-7-(4-chlorophenyl)-7-hydroxy-3,4,6,8,9,9a-hexahydro-1H-pyrido[1,2-a]pyrazin-2-yl]-[4-chloro-5-(1H-pyrazol-3-yl)pyridin-3-yl]methanone] | 172
3 | Cc1c(C(=O)N2CCN3C[C@@](O)(c4ccc(Cl)cc4)CC[C@@H]3C2)cncc1-c1cc[nH]n1 [Example 70, [(7S,9aR)-7-(4-chlorophenyl)-7-hydroxy-3,4,6,8,9,9a-hexahydro-1H-pyrido[1,2-a]pyrazin-2-yl]-[4-methyl-5-(1H-pyrazol-3-yl)pyridin-3-yl]methanone] | 994

More lines, now with the values ahead:

Row | IC50 [nM] | SMILES
4 | 13.4 | O=C(c1cccc(-c2[nH]ncc2F)c1Cl)N1CCN2C[C@@](O)(c3ccc(C(F)(F)F)cn3)CC[C@@H]2C1 [Example 64]
5 | 14.6 | O=C(c1cccc(-c2ccsn2)c1Cl)N1CCN2C[C@@](O)(c3ccc(Cl)cc3)CC[C@@H]2C1 [Example 67, [(7S,9aR)-7-(4-chlorophenyl)-7-hydroxy-3,4,6,8,9,9a-hexahydro-1H-pyrido[1,2-a]pyrazin-2-yl]-[2-chloro-3-(1,2-thiazol-3-yl)phenyl]methanone]
6 | 82.5 | O=C(c1cccc(-c2cnsc2)c1Cl)N1CCN2C[C@@](O)(c3ccc(Cl)cc3)CC[C@@H]2C1 [Example 68, [(7S,9aR)-7-(4-chlorophenyl)-7-hydroxy-3,4,6,8,9,9a-hexahydro-1H-pyrido[1,2-a]pyrazin-2-yl]-[2-chloro-3-(1,2-thiazol-4-yl)phenyl]methanone]
7 | 126 | O=C(c1cccc(-c2ccsn2)c1Cl)N1CCN2C[C@@](O)(c3ccc(C(F)(F)F)cn3)CC[C@@H]2C1 [Example 69, [(7R,9aR)-7-hydroxy-7-[5-(trifluoromethyl)pyridin-2-yl]-3,4,6,8,9,9a-hexahydro-1H-pyrido[1,2-a]pyrazin-2-yl]-[2-chloro-3-(1,2-thiazol-3-yl)phenyl]methanone]
